Literature values, collected in patent US20140141213A1, “PHOTOCURABLE INK COMPOSITION, INK JET RECORDING METHOD, RECORDED MATTER, INK SET, INK CARTRIDGE, AND RECORDING APPARATUS” (Seiko Epson Corporation, priority 2009, published 2014).

details: primary irritation index

Compared with C=C(C)C(=O)OCCCCCCOC(=O)C(=C)C [1,6-Hexanediol dimethacrylate], C=CC(=O)OCCCCCCCCCOC(=O)C=C [1,9-Nonanediol diacrylate] is higher in P.I.I: 0.5 for the first, 2.0 for the second.

Compared with C=C(C)C(=O)OCC(O)COC(=O)C(=C)C [2-Hydroxy-1,3-dimethacryloxypropane], C=CC(=O)OCC1COC(C)(CC)O1 (centres unmarked) [(2-Methyl-2-ethyl-1,3-dioxolane-4-yl)methyl acrylate] is higher in P.I.I: 0.6 for the first, 1.3 for the second.

First: C=CC(=O)OCC1COC(C)(CC(C)C)O1 (centres unmarked) [(2-Methyl-2-isobutyl-1,3-dioxolane-4-yl)methyl acrylate]
Second: C=C(C)C(=O)OCCOCCOC(=O)C(=C)C [Diethylene glycol dimethacrylate]
The P.I.I of the first is higher: 1.0 for the first, 0.5 for the second.

C=C(C)C(=O)OCCOC(=O)C(=C)C [Ethylene glycol dimethacrylate] and C=CC(=O)O[C@@H]1C[C@H]2CC[C@]1(C)C2(C)C [Isobornyl acrylate] are the same in P.I.I: 0.6 for the first, 0.6 for the second.

First: C=CC(=O)OCCOCCOC [Methoxy diethylene glycol monoacrylate]
Second: C=C(C)C(=O)OCC(C)(C)COC(=O)C(=C)C [Neopentyl glycol dimethacrylate]
The P.I.I of the first is higher: 0.7 for the first, 0.0 for the second.

Going from C=CC(=O)OCCOc1ccccc1 [Phenoxyethyl acrylate] to C=C(C)C(=O)OCCOCCOCCOCCOC(=O)C(=C)C [Tetraethylene glycol dimethacrylate], the P.I.I falls from 1.7 to 0.5.

First: C=C(C)C(=O)OCC(CC)(COC(=O)C(=C)C)COC(=O)C(=C)C [Trimethylolpropane trimethacrylate]
Second: C=CC(=O)OCC(C)OCC(C)OCC(C)OC(=O)C=C (centres unmarked) [Tripropylene glycol diacrylate]
The P.I.I of the first is lower: 0.8 for the first, 1.6 for the second.

First: Polyethylene glycol #400 diacrylate
Second: Trimethylolpropane PO-modified triacrylate
The P.I.I of the first is higher: 0.4 for the first, 0.1 for the second.

For Trimethylolpropane-modified triacrylate, the P.I.I is given as 1.5.
